Assays:
human MCR5 receptor = molecular target: T1, human MCR5 receptor (Homo sapiens, UniProt P33032); experiment: MCR5 standard functional assay (Protocol D): CHO-K1-MC5R-CRE-β-lactamase reporter; format: cell-based; conditions: for EC50: Protocol D
T1 construct: expressed in transfected cells
Source text: These cell lines were engineered using protocols akin to those outlined by Zaccolo et al (Zaccolo, M., (2000) Nature, 2(1); 25-29). Compound-induced activation of the MCR5 or MCR4 receptors in these two cell lines stimulated the production, and intracellular accumulation, of the enzyme β-lactamase. The quantity of β-lactamase enzyme produced was directly proportional to the degree to which the test compound activated the MCR5 or MCR4 receptors present on these cells and was quantified using the P-lactamase gene reporter analysis kit that is commercially available from Invitrogen Life Technologies. An in-depth description of this technology and assay protocols are available from the Invitrogen web site (www.invitrogen.com). The protocol listed below provides a summary of that assay methodology. The quantity of β-lactamase enzyme produced by compound-induced activation of the MCR5 or MCR4 receptors expressed in these cell lines was quantified using a LjI Biosystems Analyst™ HT 96.384 plate reader set to excite at a wave length of 405 nm, and measure the energy emitted at wave lengths of 450 nm and 530 nm. Cellular responses were quantified by dividing the measured energy emitted at a wavelength of 450 nm by the measured energy emitted at a wavelength of 530 nm. […] CCF4-AM was dissolved in 100% DMSO to give a final solution concentration of 1 mM. This solution was termed Solution A. Probenecid was dissolved in 200 mM NaOH to give a final solution concentration of 200 mM. This solution was termed Solution D. Composition of the β-lactamase assay dye solution: for 1072 μL of assay dye solution combine: 12 μL of Solution A, 60 μL of Solution B, 925 μL of Solution C and 75 μL of Solution D. […] Cells were grown in T225 vent cap flasks containing 50 ml of growth medium and maintained in a cell incubator at a temperature of 37° C. and in an environment containing 5% CO2. The composition of the growth medium for the CHO-K1-MC5R-CRE-β-lactamase was 90% v/v DMEM supplemented with; Glutamax-1, 25 mM HEPES, 10% v/v foetal calf serum (FCS), 1 mM sodium pyruvate, 0.1 mM non essential amino acids and 800 μg/ml genetic in. For the CHO-K1-MC4R-CRE-β-lactamase this growth media was further supplemented with […] Zeocin. Cells were harvested when they reached 80-90% confluency by first removing the existing growth medium and then washing with PBS that had been pre-warmed to a temperature of 37° C. This PBS was then removed and 5 ml of cell dissociation fluid added to the flask. These cells were incubated for 5 minutes in a cell incubator set at a temperature of 37° C. and in an environment containing 5% CO2 to detach the cells. When cells were detached, pre-warmed growth media was added, the cells re-suspended and mixed gently to achieve a single cell suspension by pipetting. This cell suspension was then used for experimentation, or transferred into a new T225 flask to perpetuate the cell culture. On the first day of the assay cells were harvested as described above. […] For each assay the cell plates were then retuned to a cell incubator maintained at a temperature of 37° C. and in an environment containing 5% CO2 overnight before performing the assay on the second assay day. […] For the MCR4 improved functional assay methodology the solution of cyclohexamide was not added. Subsequently, 10 μL of the test compound solution was transferred to the assay plate. […] After this incubation period the plate was removed from the incubator, 10 μL of the […] assay dye solution was added to each well and then the plate returned to the cell incubator.

[1] = tested on: spontaneous penile erection in the conscious rat; experiment: Spontaneous penile erection in the conscious rat (telemetric intracavernosal pressure); format: in vivo; conditions: for maximum effective dose: s.c.
Procedure: MCR4 in vivo data for the compound of Example 1 was assessed by selective activation of melanocortin MCR4 receptors using the methodology assessing spontaneous penile erection in the conscious rat.
Erectile responses were recorded by measuring intracavernosal pressure using a surgically implanted telemetric device (TA11PA-C40, 8 mm catheter, modified 3 mm tip, available from Data Sciences International Inc.). An increase in intracavernosal pressure is indicative of penile erection, as an increase in intracavernosal pressure is an essential hemodynamic event during the initiation and maintenance of penile erection. The specific details of the surgical procedures, data acquisition and analysis used herein to measure increases in intracavernosal pressure can be found in detail in Bernabe J., Rampin O., Sachs B. D., Giuliano F., “Intracavernous pressure during erection in rats: an integrative approach based on telemetric recording”, Am. J. Physiol. 1999 February; 276 (2 Pt 2):R441-9.
The test animals (rats) (during the dark cycle) were habituated for 18 hours before baseline assessment of erectile function. Prior to administration of the test agent the baseline erectile activity (B) was assessed for the vehicle for 10 minutes using telemetric recording of intracavernosal pressure. Following subcutaneous administration of the compound of Example 1 (in the same vehicle), penile erections were assessed (using telemetric recording of intracavernosal pressure) over 10 minute periods, at intervals of 30, 60, and 90 minutes post dosage.

T1 sequence (P33032 whole entry): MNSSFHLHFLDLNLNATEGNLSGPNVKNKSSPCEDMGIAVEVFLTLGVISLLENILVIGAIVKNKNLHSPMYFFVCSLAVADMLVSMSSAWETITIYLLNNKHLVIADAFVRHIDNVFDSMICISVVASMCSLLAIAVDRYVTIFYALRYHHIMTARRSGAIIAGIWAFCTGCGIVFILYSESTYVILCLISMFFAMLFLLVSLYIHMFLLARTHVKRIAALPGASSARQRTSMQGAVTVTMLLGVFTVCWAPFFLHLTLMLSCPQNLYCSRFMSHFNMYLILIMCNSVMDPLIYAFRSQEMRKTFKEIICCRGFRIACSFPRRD

Row | SMILES | Selectivity MCR5/MCR4 (human MCR5 receptor; Table 6, MCR4 by Protocol E) | EC50 (human MCR5 receptor; Table 6) | other results
1 | C[C@@H]1CN(C(=O)[C@@H]2CN(C(C)(C)C)C[C@H]2c2ccc(F)cc2F)C[C@H](C)[C@@]1(O)c1ccccc1 [Example 1, (3R,4R,5S)-1-{[(3S,4R)-1-tert-Butyl-4-(24-difluorophenyl)pyrrolidin-3-yl]carbonyl}-3,5-dimethyl-4-phenylpiperidin-4-ol] | 285 |  | maximum effective dose ([1]; additional, more detailed study, FIG. 2, conscious rat): 10 µg/kg; erectile activity (number of erections over a 10 minute period) versus baseline (treatment vehicle) ([1]; additional, more detailed study, FIG. 2, starting 30 minutes post dosage, 1, 10 and 100 μg/kg s.c.): increases the erectile activity versus baseline erectile activity; number of penile erections ([1]; conscious rat, subcutaneously (s.c.)): dose dependent increase in the number of penile erections; maximum effective dose ([1]; preliminary study, FIG. 1, conscious rat): 1 µg/kg; erectile activity (number of erections over a 10 minute period) versus baseline ([1]; preliminary study, FIG. 1, starting 60 minutes post dosage, 1, 10 and 100 μg/kg s.c.): increases the erectile activity versus baseline erectile activity; Selectivity MCR5/MCR4 (human MCR5 receptor; Table 5, MCR4 by Protocol C): 268; EC50 (human MCR5 receptor; Table 5): 6.71 µM
2 | C[C@@H]1CN(C(=O)[C@@H]2CNC[C@H]2c2ccc(F)cc2F)C[C@H](C)[C@@]1(O)c1ccc(F)cc1.Cl [Example 12, (3R,4R,5S)-1-{[(3S,4R)-4-(2,4-difluorophenyl)pyrrolidin-3-yl]carbonyl}-4-(4-fluorophenyl)-3,5-dimethylpiperidin-4-ol hydrochloride] | 267 | 20 µM | 
3 | CC(C)N1C[C@@H](C(=O)N2C[C@@H](C)[C@](O)(c3ccccc3)[C@@H](C)C2)[C@H](c2ccc(F)cc2F)C1.Cl [Example 6, (3R,4R,5S)-1-{[(3S,4R)-4-(2,4-Difluorophenyl)-1-isopropylpyrrolidin-3-yl]carbonyl}-3,5-dimethyl-4-phenylpiperidin-4-ol hydrochloride] | 83 | 1.59 µM | 

Second part, led by results:

Row | Selectivity MCR5/MCR4 (human MCR5 receptor; Table 6, MCR4 by Protocol E) | EC50 (human MCR5 receptor; Table 6) | SMILES | other results
4 | 266 | 0.956 µM | C[C@@H]1CN(C(=O)[C@@H]2CN(c3ccccn3)C[C@H]2c2ccc(F)cc2F)C[C@H](C)[C@@]1(O)c1ccccc1.Cl [Example 31, (3R,4R,5S)-1-{[(3S,4R)-4-(2,4-difluorophenyl)-1-pyridin-2-ylpyrrolidin-3-yl]carbonyl}-3,5-dimethyl-4-phenylpiperidin-4-ol hydrochloride] | 
5 | 285 | 2.74 µM | C[C@@H]1CN(C(=O)[C@@H]2CN(C(C)(C)C)C[C@H]2c2ccc(F)cc2F)C[C@H](C)[C@@]1(O)c1ccccc1.Cl [Example 5, (3R,4R,5S)-1-{[(3S,4R)-1-tert-Butyl-4-(2,4-difluorophenyl)pyrrolidin-3-yl]carbonyl}-3,5-dimethyl-4-phenylpiperidin-4-ol hydrochloride] | 
6 | 13,333 | 20 µM | C[C@@H]1CN(C(=O)[C@@H]2CN(c3cccnn3)C[C@H]2c2ccc(F)cc2F)C[C@H](C)[C@@]1(O)c1ccccc1.Cl [Example 35, (3R,4R,5S)-1-{[(3S,4R)-4-(2,4-difluorophenyl)-1-pyridazin-3-ylpyrrolidin-3-yl]carbonyl}-3,5-dimethyl-4-phenylpiperidin-4-ol hydrochloride] | 
7 | 624 | 16.9 µM | C[C@@H]1CN(C(=O)[C@@H]2CN(C(C)(C)C)C[C@H]2c2ccc(F)cc2F)C[C@H](C)[C@@]1(O)c1ccc(Cl)cc1.Cl [Example 13, (3R,4R,5S)-1-{[(3S,4R)-1-tert-butyl-4-(2,4-difluorophenyl)pyrrolidin-3-yl]carbonyl}-4-(4-chlorophenyl)-3,5-dimethylpiperidin-4-ol hydrochloride] | 
